Experimental data taken from patent US20250019357A1, “[…] MORPHIC FORMS AND MIXTURES FOR THE TREATMENT OF MENTAL DISORDERS OR MENTAL ENHANCEMENT” (TACTOGEN INC, priority 2021, published 2025).

Assays:
5-HT2B = 5-HT2B (Homo sapiens (Human), UniProt P41595); assay: 5-HT2B antagonist assay (DiscoveRx Calcium NWPLUS, FLIPR); assay type: cell-based
Protocol: 5-HT2A and 5-HT2B Agonist and Antagonist Assays
The DiscoveRx Calcium NWPLUS Assay was used for detection of changes in intracellular calcium as signaled by an increase of dye fluorescence in cells expressing 5-HT2A receptors. Signal was measured on a fluorescent plate reader equipped with fluidic handling capable of detecting rapid changes in fluorescence upon compound stimulation.
To conduct the assay, cell lines were expanded from freezer stocks according to standard procedures. Cells (10,000cells/well) were seeded in a total volume of 50 μL ([…]) into black-walled, clear-bottom, Poly-D-lysine coated 384-well microplates and incubated at 37-C for the appropriate time prior to testing. DMSO concentration for all readouts was <0.2%. […]
Compound agonist activity was measured on a FLIPR Tetra. Calcium mobilization was monitored for 2 minutes with a 5 second baseline read. FLIPR read-Area under the curve was calculated for the two minute read. Compound activity was analyzed using CBIS data analysis suite (ChemInnovation, CA). Percentage activity was calculated as 100%×(mean RFU of test sample−mean RFU of vehicle control)/(mean MAX RFU control ligand −mean RFU of vehicle control). For antagonist mode assays, percentage inhibition was calculated as 100%×(1−(mean RFU of test sample−mean RFU of vehicle control)/(mean RFU of EC80 control−mean RFU of vehicle control)). […]

SERT [1] = target: T1, SERT (Rattus norvegicus (Rat), UniProt P31652); assay: In vitro rat synaptosome serotonin uptake inhibition assay (Examples 9, 58); assay type: biochemical; conditions: rat synaptosomes
Source text: (§1) FIG. 7A is a graph showing results from an in vitro rat synaptosome serotonin uptake inhibition assay. […] Details and procedural information for this assay are described in Example 9. The x-axis is the log [dose] concentration measured in molar and the y-axis is the [^3H]-labeled 5-HT reuptake measured in percent.
as §1, with “176” for “7A”, “58.” for “9.”, “x-axis” for “x-axis is”, “concentration is” for “concentration”, “Molar units” for “molar”, “percent of maximum produced by the comparison releaser.” for “percent.”

SERT [2] = target: T1, SERT; assay: In vitro rat synaptosome serotonin release (efflux) assay (Examples 9, 58); assay type: biochemical; conditions: rat synaptosomes
Source text: as §1, with “7B” for “7A”, “release” for “uptake inhibition”, “release” for “reuptake”
as §1, with “177” for “7A”, “release” for “uptake inhibition”, “58.” for “9.”, “x-axis” for “x-axis is”, “release” for “reuptake”

Sequence of 5-HT2B (P41595 whole entry): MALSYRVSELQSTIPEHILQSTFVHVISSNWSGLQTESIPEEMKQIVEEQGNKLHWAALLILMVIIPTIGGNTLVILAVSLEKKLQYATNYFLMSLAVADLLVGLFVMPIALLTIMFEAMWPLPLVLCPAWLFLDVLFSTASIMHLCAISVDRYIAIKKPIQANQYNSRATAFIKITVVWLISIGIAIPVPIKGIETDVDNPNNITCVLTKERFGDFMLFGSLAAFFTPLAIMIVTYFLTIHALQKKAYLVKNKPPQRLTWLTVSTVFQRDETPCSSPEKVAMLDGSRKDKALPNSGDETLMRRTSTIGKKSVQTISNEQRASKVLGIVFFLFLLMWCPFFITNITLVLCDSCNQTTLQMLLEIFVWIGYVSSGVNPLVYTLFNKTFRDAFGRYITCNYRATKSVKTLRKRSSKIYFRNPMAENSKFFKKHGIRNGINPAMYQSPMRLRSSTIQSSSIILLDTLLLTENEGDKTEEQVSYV

CCC(Cc1ccc2ccoc2c1)NC (racemic) [RS-6-MBPB]
IC50 (5-HT2B): 3.08 µM | [3H]-labeled 5-HT reuptake (serotonin uptake inhibition) (SERT [1]): rapidly increases extracellular serotonin by inhibiting reuptake | [3H]-labeled 5-HT release (SERT [2]): rapidly increases extracellular serotonin by stimulating release
